Laboratory results published in the supplement of paper PMC13207355.

Assays:
Conditions in all cases: exposure time: 72 h
E13 [1] = patient-derived glioblastoma stem cells of classical subtype; experiment: surviving fraction (nuclei count normalised to DMSO); higher = more cells surviving (less toxic)
E21 [2] = patient-derived glioblastoma stem cells of mesenchymal subtype; experiment: as above
E28 [3] = patient-derived glioblastoma stem cells of classical subtype; experiment: as above
E31 [4] = patient-derived glioblastoma stem cells of proneural subtype; experiment: as above
E34 [5] = patient-derived glioblastoma stem cells of proneural subtype; experiment: as above
E57 [6] = patient-derived glioblastoma stem cells of mesenchymal subtype; experiment: as above
FT3469 [7] = normal neural stem cell line; experiment: as above
E13 [8] = experiment: phenotypic distance (Euclidean, principal components) from DMSO controls (arbitrary units); higher = stronger morphological change
E21 [9] = experiment: as above
E28 [10] = experiment: as above
E31 [11] = experiment: as above
E34 [12] = experiment: as above
E57 [13] = experiment: as above
FT3469 [14] = experiment: as above
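Throughout, for phenotypic distance (Euclidean, principal components) from DMSO controls: cell Painting imaging in 384-well plates, CellProfiler features reduced to at least 20 principal components, Euclidean distance versus same-plate DMSO vehicle wells (0.1% v/v), median over six images per well.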
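Throughout, for surviving fraction (nuclei count normalised to DMSO): nuclei counted by high-content imaging of Hoechst-stained cells in laminin-coated 384-well plates, relative to 0.1% DMSO vehicle wells, with staurosporine as cell-death control.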

CCOC(=O)OC(C)OC1=C(C(=O)Nc2ccccn2)N(C)S(=O)(=O)c2ccccc21 (stereo unspecified) [Ampiroxicam]
Conditions	phenotypic distance	surviving fraction
E13 [1], 4.1 nM	–	0.882
E13 [1], 12.3 nM	–	0.885
E13 [1], 37 nM	–	1.02
E13 [1], 111.1 nM	–	0.926
E13 [1], 333.3 nM	–	1.08
E13 [1], 1000 nM	–	0.895
E13 [1], 3000 nM	–	0.916
E13 [8], 4.1 nM	0.946	–
E13 [8], 12.3 nM	0.661	–
E13 [8], 37 nM	0.814	–
E13 [8], 111.1 nM	0.688	–
E13 [8], 333.3 nM	0.952	–
E13 [8], 1000 nM	0.72	–
E13 [8], 3000 nM	0.529	–
E21 [2], 4.1 nM	–	0.957
E21 [2], 12.3 nM	–	0.928
E21 [2], 37 nM	–	0.953
E21 [2], 111.1 nM	–	0.847
E21 [2], 333.3 nM	–	1.09
E21 [2], 1000 nM	–	0.883
E21 [2], 3000 nM	–	1.01
E21 [9], 4.1 nM	0.574	–
E21 [9], 12.3 nM	0.804	–
E21 [9], 37 nM	0.922	–
E21 [9], 111.1 nM	0.659	–
E21 [9], 333.3 nM	0.834	–
E21 [9], 1000 nM	0.819	–
E21 [9], 3000 nM	0.71	–
E28 [3], 4.1 nM	–	0.815
E28 [3], 12.3 nM	–	1.1
E28 [3], 37 nM	–	0.896
E28 [3], 111.1 nM	–	0.884
E28 [3], 333.3 nM	–	0.939
E28 [3], 1000 nM	–	1.08
E28 [3], 3000 nM	–	0.871
E28 [10], 4.1 nM	1.28	–
E28 [10], 12.3 nM	0.987	–
E28 [10], 37 nM	0.538	–
E28 [10], 111.1 nM	0.744	–
E28 [10], 333.3 nM	0.444	–
E28 [10], 1000 nM	0.516	–
E28 [10], 3000 nM	0.705	–
E31 [4], 4.1 nM	–	0.83
E31 [4], 12.3 nM	–	0.849
E31 [4], 37 nM	–	0.967
E31 [4], 111.1 nM	–	1
E31 [4], 333.3 nM	–	0.856
E31 [4], 1000 nM	–	1.02
E31 [4], 3000 nM	–	1.08
E31 [11], 4.1 nM	0.739	–
E31 [11], 12.3 nM	0.998	–
E31 [11], 37 nM	0.78	–
E31 [11], 111.1 nM	0.734	–
E31 [11], 333.3 nM	0.689	–
E31 [11], 1000 nM	0.71	–
E31 [11], 3000 nM	0.801	–
E34 [5], 4.1 nM	–	1.14
E34 [5], 12.3 nM	–	0.946
E34 [5], 37 nM	–	0.986
E34 [5], 111.1 nM	–	1.1
E34 [5], 333.3 nM	–	1.01
E34 [5], 1000 nM	–	0.932
E34 [5], 3000 nM	–	0.984
E34 [12], 4.1 nM	0.789	–
E34 [12], 12.3 nM	0.855	–
E34 [12], 37 nM	0.505	–
E34 [12], 111.1 nM	0.762	–
E34 [12], 333.3 nM	0.521	–
E34 [12], 1000 nM	0.542	–
E34 [12], 3000 nM	0.73	–
E57 [6], 4.1 nM	–	0.955
E57 [6], 12.3 nM	–	1.02
E57 [6], 37 nM	–	0.962
E57 [6], 111.1 nM	–	1.02
E57 [6], 333.3 nM	–	0.943
E57 [6], 1000 nM	–	1.06
E57 [6], 3000 nM	–	1.08
E57 [13], 4.1 nM	0.796	–
E57 [13], 12.3 nM	0.83	–
E57 [13], 37 nM	0.552	–
E57 [13], 111.1 nM	0.54	–
E57 [13], 333.3 nM	0.507	–
E57 [13], 1000 nM	1.03	–
E57 [13], 3000 nM	0.908	–
FT3469 [7], 4.1 nM	–	0.768
FT3469 [7], 12.3 nM	–	1.05
FT3469 [7], 37 nM	–	1.02
FT3469 [7], 111.1 nM	–	1.05
FT3469 [7], 333.3 nM	–	1.04
FT3469 [7], 1000 nM	–	1.08
FT3469 [7], 3000 nM	–	0.95
FT3469 [14], 4.1 nM	0.638	–
FT3469 [14], 12.3 nM	0.959	–
FT3469 [14], 37 nM	0.379	–
FT3469 [14], 111.1 nM	1.16	–
FT3469 [14], 333.3 nM	0.73	–
FT3469 [14], 1000 nM	1.03	–
FT3469 [14], 3000 nM	0.924	–

c1ccc2c(c1)[I+]c1ccccc1-2 [Diphenyleneiodonium chloride]
Conditions	phenotypic distance	surviving fraction
E13 [1], 4.1 nM	–	0.616
E13 [1], 12.3 nM	–	0.605
E13 [1], 37 nM	–	0.464
E13 [1], 111.1 nM	–	0.47
E13 [1], 333.3 nM	–	0.417
E13 [1], 1000 nM	–	0.331
E13 [1], 3000 nM	–	0.251
E13 [8], 4.1 nM	1.34	–
E13 [8], 12.3 nM	4.24	–
E13 [8], 37 nM	1.9	–
E13 [8], 111.1 nM	2.21	–
E13 [8], 333.3 nM	3.13	–
E13 [8], 1000 nM	5.26	–
E13 [8], 3000 nM	5.24	–
E21 [2], 4.1 nM	–	0.827
E21 [2], 12.3 nM	–	0.767
E21 [2], 37 nM	–	0.672
E21 [2], 111.1 nM	–	0.559
E21 [2], 333.3 nM	–	0.548
E21 [2], 1000 nM	–	0.525
E21 [2], 3000 nM	–	0.401
E21 [9], 4.1 nM	2.03	–
E21 [9], 12.3 nM	1.85	–
E21 [9], 37 nM	1.83	–
E21 [9], 111.1 nM	3.51	–
E21 [9], 333.3 nM	2.93	–
E21 [9], 1000 nM	3.58	–
E21 [9], 3000 nM	4.29	–
E28 [3], 4.1 nM	–	0.654
E28 [3], 12.3 nM	–	0.916
E28 [3], 37 nM	–	0.853
E28 [3], 111.1 nM	–	0.524
E28 [3], 333.3 nM	–	0.392
E28 [3], 1000 nM	–	0.319
E28 [3], 3000 nM	–	0.212
E28 [10], 4.1 nM	0.894	–
E28 [10], 12.3 nM	0.602	–
E28 [10], 37 nM	0.781	–
E28 [10], 111.1 nM	1.28	–
E28 [10], 333.3 nM	2.53	–
E28 [10], 1000 nM	2.98	–
E28 [10], 3000 nM	3.16	–
E31 [4], 4.1 nM	–	0.886
E31 [4], 12.3 nM	–	0.765
E31 [4], 37 nM	–	0.518
E31 [4], 111.1 nM	–	0.31
E31 [4], 333.3 nM	–	0.371
E31 [4], 1000 nM	–	0.338
E31 [4], 3000 nM	–	0.216
E31 [11], 4.1 nM	1.12	–
E31 [11], 12.3 nM	1.08	–
E31 [11], 37 nM	2.15	–
E31 [11], 111.1 nM	2.63	–
E31 [11], 333.3 nM	2.78	–
E31 [11], 1000 nM	3.14	–
E31 [11], 3000 nM	4.34	–
E34 [5], 4.1 nM	–	0.75
E34 [5], 12.3 nM	–	0.634
E34 [5], 37 nM	–	0.521
E34 [5], 111.1 nM	–	0.586
E34 [5], 333.3 nM	–	0.555
E34 [5], 1000 nM	–	0.519
E34 [5], 3000 nM	–	0.411
E34 [12], 4.1 nM	1.01	–
E34 [12], 12.3 nM	1.55	–
E34 [12], 37 nM	1.65	–
E34 [12], 111.1 nM	2.16	–
E34 [12], 333.3 nM	1.7	–
E34 [12], 1000 nM	3.29	–
E34 [12], 3000 nM	4.68	–
E57 [6], 4.1 nM	–	0.876
E57 [6], 12.3 nM	–	0.876
E57 [6], 37 nM	–	0.767
E57 [6], 111.1 nM	–	0.426
E57 [6], 333.3 nM	–	0.291
E57 [6], 1000 nM	–	0.266
E57 [6], 3000 nM	–	0.21
E57 [13], 4.1 nM	1.31	–
E57 [13], 12.3 nM	1.36	–
E57 [13], 37 nM	1.73	–
E57 [13], 111.1 nM	4.12	–
E57 [13], 333.3 nM	6.27	–
E57 [13], 1000 nM	6.54	–
E57 [13], 3000 nM	7.74	–
FT3469 [7], 4.1 nM	–	0.771
FT3469 [7], 12.3 nM	–	0.707
FT3469 [7], 37 nM	–	0.742
FT3469 [7], 111.1 nM	–	0.753
FT3469 [7], 333.3 nM	–	0.59
FT3469 [7], 1000 nM	–	0.473
FT3469 [7], 3000 nM	–	0.449
FT3469 [14], 4.1 nM	1.56	–
FT3469 [14], 12.3 nM	1.64	–
FT3469 [14], 37 nM	1.95	–
FT3469 [14], 111.1 nM	1.56	–
FT3469 [14], 333.3 nM	2.13	–
FT3469 [14], 1000 nM	2.73	–
FT3469 [14], 3000 nM	2.8	–
